Data: ChEMBL document CHEMBL1155084 (J Med Chem, 2008)

What was measured:
Blood [1] = assay: Inhibition of TNFalpha release in human whole blood; assay type: functional, tissue-based
[2] = target: Mitogen-activated protein kinase 14 (Homo sapiens, UniProt Q16539); assay: Inhibition of p38alpha
Blood [3] = assay: Inhibition of IL1-beta release in human whole blood; assay type: functional, tissue-based
CYP2C9 = CYP2C9 (Homo sapiens, UniProt P11712); assay: Inhibition of CYP2C9 at 10 uM; assay type: ADME
Sequence of CYP2C9 (P11712 whole entry): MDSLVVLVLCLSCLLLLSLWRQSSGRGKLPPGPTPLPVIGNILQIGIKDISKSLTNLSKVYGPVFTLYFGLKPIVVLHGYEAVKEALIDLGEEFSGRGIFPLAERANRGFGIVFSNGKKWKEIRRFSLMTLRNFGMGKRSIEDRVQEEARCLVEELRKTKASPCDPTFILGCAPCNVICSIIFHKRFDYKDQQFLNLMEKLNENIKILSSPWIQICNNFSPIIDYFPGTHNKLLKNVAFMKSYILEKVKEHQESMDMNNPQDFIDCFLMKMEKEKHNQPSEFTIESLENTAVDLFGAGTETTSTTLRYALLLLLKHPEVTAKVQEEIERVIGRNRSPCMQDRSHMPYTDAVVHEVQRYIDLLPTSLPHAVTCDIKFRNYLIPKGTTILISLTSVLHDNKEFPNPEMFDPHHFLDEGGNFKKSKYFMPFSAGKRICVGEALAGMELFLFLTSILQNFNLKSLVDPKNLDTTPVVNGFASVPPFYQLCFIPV

CYP1A2 = target: T1, CYP1A2 (Homo sapiens, UniProt P05177); assay: Inhibition of CYP1A2 at 10 uM; assay type: ADME
T1 sequence (P05177 whole entry): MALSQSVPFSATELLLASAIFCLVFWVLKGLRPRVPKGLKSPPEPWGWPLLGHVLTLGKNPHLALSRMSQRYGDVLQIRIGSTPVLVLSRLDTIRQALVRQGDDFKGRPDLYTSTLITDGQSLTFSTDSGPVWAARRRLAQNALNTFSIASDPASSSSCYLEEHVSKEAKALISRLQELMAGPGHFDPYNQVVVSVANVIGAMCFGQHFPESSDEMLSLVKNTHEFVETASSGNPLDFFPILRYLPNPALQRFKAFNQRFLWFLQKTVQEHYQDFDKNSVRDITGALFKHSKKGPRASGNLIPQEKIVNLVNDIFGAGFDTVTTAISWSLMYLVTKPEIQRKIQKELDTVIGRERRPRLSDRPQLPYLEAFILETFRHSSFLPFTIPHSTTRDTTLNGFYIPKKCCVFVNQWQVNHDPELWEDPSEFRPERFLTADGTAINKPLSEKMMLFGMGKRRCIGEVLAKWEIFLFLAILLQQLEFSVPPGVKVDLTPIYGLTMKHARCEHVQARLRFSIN

CYP3A4 = CYP3A4 (Homo sapiens, UniProt P08684); assay: Inhibition of CYP3A4 at 10 uM; assay type: ADME
Sequence of CYP3A4 (P08684 whole entry): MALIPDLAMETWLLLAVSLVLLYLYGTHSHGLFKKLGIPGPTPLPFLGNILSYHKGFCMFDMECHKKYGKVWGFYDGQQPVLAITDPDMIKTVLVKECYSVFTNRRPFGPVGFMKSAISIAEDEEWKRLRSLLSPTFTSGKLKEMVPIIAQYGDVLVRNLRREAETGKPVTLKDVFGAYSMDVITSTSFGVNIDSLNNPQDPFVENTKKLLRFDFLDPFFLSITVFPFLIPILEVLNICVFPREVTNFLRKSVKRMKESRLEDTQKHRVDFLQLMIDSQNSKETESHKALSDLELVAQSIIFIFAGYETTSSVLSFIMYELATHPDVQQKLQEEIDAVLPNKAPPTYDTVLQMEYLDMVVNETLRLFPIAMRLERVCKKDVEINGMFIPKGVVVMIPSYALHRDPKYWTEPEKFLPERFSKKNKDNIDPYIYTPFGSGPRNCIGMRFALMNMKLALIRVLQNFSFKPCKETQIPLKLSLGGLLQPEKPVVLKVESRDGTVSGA

CYP2C19 = CYP2C19 (Homo sapiens, UniProt P33261); assay: Inhibition of CYP2C19 at 10 uM; assay type: ADME
Sequence of CYP2C19 (P33261 whole entry): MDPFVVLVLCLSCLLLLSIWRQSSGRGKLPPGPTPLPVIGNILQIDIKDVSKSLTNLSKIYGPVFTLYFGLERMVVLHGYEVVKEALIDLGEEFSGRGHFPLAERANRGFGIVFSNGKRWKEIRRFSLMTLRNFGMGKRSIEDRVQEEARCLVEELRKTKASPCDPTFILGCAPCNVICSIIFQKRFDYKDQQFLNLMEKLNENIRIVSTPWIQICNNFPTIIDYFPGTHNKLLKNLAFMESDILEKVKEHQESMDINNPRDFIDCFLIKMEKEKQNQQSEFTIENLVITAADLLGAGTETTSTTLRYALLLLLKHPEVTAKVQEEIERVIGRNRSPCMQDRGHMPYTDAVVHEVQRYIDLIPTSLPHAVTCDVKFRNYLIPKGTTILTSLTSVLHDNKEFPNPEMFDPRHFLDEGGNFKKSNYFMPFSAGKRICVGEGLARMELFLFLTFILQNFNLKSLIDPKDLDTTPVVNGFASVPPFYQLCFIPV

CYP2D6 = CYP2D6 (Homo sapiens, UniProt P10635); assay: Inhibition of CYP2D6 at 10 uM; assay type: ADME
Sequence of CYP2D6 (P10635 whole entry): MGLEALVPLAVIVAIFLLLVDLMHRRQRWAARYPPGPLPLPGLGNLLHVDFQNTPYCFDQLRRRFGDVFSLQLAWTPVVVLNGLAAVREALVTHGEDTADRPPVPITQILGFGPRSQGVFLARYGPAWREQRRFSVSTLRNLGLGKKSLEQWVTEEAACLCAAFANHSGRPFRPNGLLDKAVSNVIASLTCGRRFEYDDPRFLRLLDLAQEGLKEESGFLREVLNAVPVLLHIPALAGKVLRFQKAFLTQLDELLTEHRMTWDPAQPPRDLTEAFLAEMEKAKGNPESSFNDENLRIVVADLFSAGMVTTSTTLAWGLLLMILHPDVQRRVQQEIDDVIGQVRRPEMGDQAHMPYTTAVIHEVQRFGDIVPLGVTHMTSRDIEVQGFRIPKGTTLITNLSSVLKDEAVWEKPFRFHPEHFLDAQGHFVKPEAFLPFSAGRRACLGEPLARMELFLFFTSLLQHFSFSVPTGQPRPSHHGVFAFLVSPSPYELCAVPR

Sequence of Mitogen-activated protein kinase 14 (Q16539 whole entry): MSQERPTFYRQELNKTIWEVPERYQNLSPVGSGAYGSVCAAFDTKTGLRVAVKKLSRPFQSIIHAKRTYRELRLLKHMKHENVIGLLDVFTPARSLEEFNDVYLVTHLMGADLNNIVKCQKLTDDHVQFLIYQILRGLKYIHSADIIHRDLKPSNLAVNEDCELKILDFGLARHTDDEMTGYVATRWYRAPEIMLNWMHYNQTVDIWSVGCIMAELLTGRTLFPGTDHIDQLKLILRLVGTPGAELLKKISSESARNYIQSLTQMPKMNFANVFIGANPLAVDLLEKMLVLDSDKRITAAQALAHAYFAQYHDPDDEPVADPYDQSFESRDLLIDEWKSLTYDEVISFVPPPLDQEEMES

Row | Compound | IC50 (Blood [1]) | IC50 [2] | other results
1 | CSc1nc(-c2ccc(F)cc2)c(-c2ccnc(F)c2)[nH]1 | 29900 nM | 559 nM | 
2 | CSc1nc(-c2ccc(F)cc2)c(-c2ccnc(NCCC(C)(C)C)c2)[nH]1 | 4540 nM | 126 nM | 
3 | CSc1nc(-c2cccc(C(F)(F)F)c2)c(-c2ccnc(NCc3ccco3)c2)[nH]1 | 14800 nM | 191 nM | 
4 | CSc1nc(-c2cccc(C(F)(F)F)c2)c(-c2ccnc(NC3CCCc4ccccc43)c2)[nH]1 (centres undefined) | 21200 nM | 248 nM | IC50 (Blood [3]): 10300 nM
5 | CSc1nc(-c2ccc(F)cc2)c(-c2ccnc(NCc3cccc4ccccc34)c2)[nH]1 | 28000 nM | 171 nM | 
6 | CSc1nc(-c2ccc(F)cc2)c(-c2ccnc3ccccc23)[nH]1 | 16800 nM | 411 nM | IC50 (Blood [3]): 35000 nM
7 | CCC(CO)Nc1cc(-c2[nH]c(SC)nc2-c2ccc(F)cc2)ccn1 (centres undefined) | 239 nM | 10 nM | 
8 | Fc1ccc(-c2nc(SCc3ccccc3)[nH]c2-c2ccnc(F)c2)cc1 |  | 258 nM | 
9 | CCSc1nc(-c2ccc(F)cc2)c(-c2ccnc(Cl)c2)[nH]1 | 36000 nM | 372 nM | 
10 | CSc1nc(-c2cccc(C(F)(F)F)c2)c(-c2ccnc(N[C@H]3CC[C@H](O)CC3)c2)[nH]1 | 1680 nM | 11 nM | 
11 | CSc1nc(-c2ccc(F)cc2)c(-c2ccnc(NC(Cc3ccccc3)Cc3ccccc3)c2)[nH]1 | 43600 nM | 2150 nM | 
12 | CSc1nc(-c2ccc(F)cc2)c(-c2ccnc(NC(C)CO)c2)[nH]1 (centres undefined) | 439 nM | 6 nM | 
13 | CSc1nc(-c2ccc(F)cc2)c(-c2ccnc(NCc3ccc(C(C)(C)C)cc3)c2)[nH]1 | 52600 nM | 1340 nM | 
14 | CSc1nc(-c2ccc(F)cc2)c(-c2ccnc(N[C@@H](C)C3CCCCC3)c2)[nH]1 | 27600 nM | 153 nM | 
15 | CSc1nc(-c2ccc(F)cc2)c(-c2ccnc(OC(C)CCCC(C)C)c2)[nH]1 (centres undefined) | 42700 nM | 641 nM | 
16 | CSc1nc(-c2ccc(F)cc2)c(-c2ccnc(NCC(C)c3ccccc3)c2)[nH]1 (centres undefined) | 3930 nM | 17 nM | IC50 (Blood [3]): 10100 nM
17 | C[S+]([O-])c1ccc(-c2nc(-c3ccncc3)c(-c3ccc(F)cc3)[nH]2)cc1 (centres undefined) [SB-203580] |  |  | inhibition at 10 µM (CYP2C9): 87%; inhibition at 10 µM (CYP1A2): 38%
18 | CSc1nc(-c2cccc(C(F)(F)F)c2)c(-c2ccnc(N[C@H](C)C3CCCCC3)c2)[nH]1 | 9890 nM | 36 nM | 
19 | CSc1nc(-c2ccc(F)cc2)c(-c2ccnc(N[C@H]3CC[C@H](C)CC3)c2)[nH]1 | 15800 nM | 15 nM | 
20 | CSc1nc(-c2ccc(F)cc2)c(-c2ccnc(NCCO)c2)[nH]1 | 2040 nM | 45 nM | 
21 | CSc1nc(-c2ccc(F)cc2)c(-c2ccncc2)n1C | 5100 nM |  | IC50 (Blood [3]): 80 nM
22 | CSc1nc(-c2ccc(F)cc2)c(-c2ccnc(NCc3ccc(F)cc3)c2)[nH]1 | 22200 nM | 173 nM | 
23 | CSc1nc(-c2cccc(C(F)(F)F)c2)c(-c2ccnc(F)c2)[nH]1 | 44200 nM | 1090 nM | 

Row | Compound | IC50 (Blood [1]) | IC50 [2] | other results
24 | CSc1nc(-c2ccc(F)cc2)c(-c2ccnc(NCc3ccncc3)c2)[nH]1 | 6220 nM | 119 nM | 
25 | CCSc1cc(-c2nc(SC)[nH]c2-c2ccc(F)cc2)ccn1 | 24100 nM | 87 nM | IC50 (Blood [3]): 61300 nM
26 | COCCn1c(SC)nc(-c2ccc(F)cc2)c1-c1ccnc(Nc2ccccc2)c1 |  | 51 nM | 
27 | CSc1nc(-c2ccc(F)cc2)c(-c2ccnc(NCCC(C)C)c2)[nH]1 | 2430 nM | 90 nM | 
28 | CSc1nc(-c2ccc(F)cc2)c(-c2ccnc(NC(C)C(C)(C)C)c2)[nH]1 (centres undefined) | 435 nM | 230 nM | 
29 | COCCn1c(SC)nc(-c2ccc(F)cc2)c1-c1ccnc(NCC(C)O)c1 (centres undefined) | 6380 nM | 146 nM | 
30 | CSc1nc(-c2ccnc(NC3CCCc4ccccc43)c2)c(-c2ccc(F)cc2)[nH]1 (centres undefined) | 2810 nM | 47 nM | IC50 (Blood [3]): 16200 nM
31 | CSc1nc(-c2ccc(F)cc2)c(-c2ccnc(NC(C)CC(C)C)c2)[nH]1 (centres undefined) | 700 nM | 26 nM | 
32 | CSc1nc(-c2ccc(F)cc2)c(-c2ccnc(N[C@H](C)C3CCCCC3)c2)[nH]1 | 3300 nM | 9 nM | 
33 | CSc1nc(-c2cccc(C(F)(F)F)c2)c(-c2ccnc(NCc3cccs3)c2)[nH]1 | 26800 nM | 239 nM | 
34 | CSc1nc(-c2ccc(F)cc2)c(-c2ccnc(NC3CCC(C)CC3)c2)[nH]1 (mixture of isomers) | 5400 nM | 20 nM | 
35 | CSc1nc(-c2ccc(F)cc2)c(-c2ccnc(NCCc3cc(C)ccc3C)c2)[nH]1 | 51500 nM | 82 nM | IC50 (Blood [3]): 59300 nM
36 | CSc1nc(-c2cccc(C(F)(F)F)c2)c(-c2ccnc(NC(C)c3ccccc3)c2)[nH]1 (centres undefined) | 12200 nM | 199 nM | 
37 | CSc1nc(-c2cccc(C(F)(F)F)c2)c(-c2ccnc(NCC(C)c3ccccc3)c2)[nH]1 (centres undefined) | 23000 nM | 93 nM | 
38 | CCSc1nc(-c2ccc(F)cc2)c(-c2ccnc(F)c2)[nH]1 |  | 213 nM | 
39 | CSc1nc(-c2ccc(F)cc2)c(-c2ccnc(OCc3cccs3)c2)[nH]1 | 38400 nM | 424 nM | 
40 | COCCn1c(SC)nc(-c2ccc(F)cc2)c1-c1ccnc(NC2CCOCC2)c1 | 5880 nM | 38 nM | 
41 | CSc1nc(-c2ccc(F)cc2)c(-c2ccnc(NCc3cc4ccccc4s3)c2)[nH]1 | 55500 nM | 314 nM | 
42 | CSc1nc(-c2ccnc(NCCCO)c2)c(-c2ccc(F)cc2)[nH]1 | 680 nM | 15 nM | 
43 | CSc1nc(-c2ccnc(OCC3CCCO3)c2)c(-c2ccc(F)cc2)[nH]1 (centres undefined) | 11200 nM | 542 nM | 
44 | CSc1nc(-c2ccnc(NC3CCCCC3)c2)c(-c2ccc(F)cc2)[nH]1 | 362 nM | 20 nM | 
45 | CSc1nc(-c2ccc(F)cc2)c(-c2ccnc(NC(Cc3ccccc3)c3ccccc3)c2)[nH]1 (centres undefined) | 43500 nM | 348 nM | 
46 | COCCn1c(SC)nc(-c2ccc(F)cc2)c1-c1ccnc(NC2CCCC[C@H]2O)c1 (some centres undefined) |  | 211 nM | 

Row | Compound | IC50 (Blood [1]) | IC50 [2] | other results
47 | COCCn1c(SC)nc(-c2ccc(F)cc2)c1-c1ccnc(N[C@H](C)C2CCCCC2)c1 | 28000 nM | 359 nM | 
48 | COCCn1c(SC)nc(-c2ccc(F)cc2)c1-c1ccnc(N[C@H](C)CO)c1 |  | 485 nM | 
49 | CCC(Nc1cc(-c2nc(SC)[nH]c2-c2ccc(F)cc2)ccn1)c1ccccc1 (centres undefined) |  | 68 nM | inhibition at 10 µM (CYP2C9): 80%; inhibition at 10 µM (CYP3A4): 81%; inhibition at 10 µM (CYP2C19): 88%; inhibition at 10 µM (CYP2D6): 73%; inhibition at 10 µM (CYP1A2): 55%
50 | CSc1nc(-c2ccc(F)cc2)c(-c2ccnc(NCc3ccccc3)c2)[nH]1 |  | 139 nM | 
51 | CSc1nc(-c2ccc(F)cc2)c(-c2ccnc(NC3CCCCC3C)c2)[nH]1 (mixture of isomers) | 458 nM | 13 nM | IC50 (Blood [3]): 136 nM
52 | CSc1nc(-c2cccc(C(F)(F)F)c2)c(-c2ccnc(NCc3ccccc3)c2)[nH]1 | 38100 nM | 282 nM | 
53 | CCC(C)CNc1cc(-c2[nH]c(SC)nc2-c2ccc(F)cc2)ccn1 (centres undefined) | 622 nM | 23 nM | IC50 (Blood [3]): 2760 nM
54 | CSc1nc(-c2ccnc(NC3CCOCC3)c2)c(-c2ccc(F)cc2)[nH]1 |  | 5 nM | 
55 | Fc1ccc(-c2nc(SCc3ccccc3)[nH]c2-c2ccnc(Cl)c2)cc1 | 50900 nM | 2900 nM | 
56 | CSc1nc(-c2cccc(C(F)(F)F)c2)c(-c2ccnc(NCCCO)c2)[nH]1 | 5190 nM | 61 nM | 
57 | CCSc1nc(-c2cccc(C(F)(F)F)c2)c(-c2ccnc(F)c2)[nH]1 | 71500 nM | 657 nM | 
58 | CSc1nc(-c2ccc(F)cc2)c(-c2ccnc(OC(C)c3ccccc3)c2)[nH]1 (centres undefined) | 44300 nM | 639 nM | 
59 | CSc1nc(-c2ccc(F)cc2)c(-c2ccnc(NC(CO)C(C)C)c2)[nH]1 (centres undefined) | 1060 nM | 34 nM | 
60 | Fc1cc(-c2[nH]c(SCc3ccccc3)nc2-c2cccc(C(F)(F)F)c2)ccn1 | 83600 nM | 1950 nM | 
61 | CSc1nc(-c2ccc(F)cc2)c(-c2ccnc(Cl)c2)[nH]1 |  | 1040 nM | 
62 | CSc1nc(-c2ccc(F)cc2)c(-c2ccnc(NCc3ccc(C)o3)c2)[nH]1 | 7430 nM | 113 nM | 
63 | CSc1nc(-c2ccc(F)cc2)c(-c2ccnc(N[C@H]3CC[C@@H](C)CC3)c2)[nH]1 | 3680 nM | 31 nM | 
64 | COCCn1c(SC)nc(-c2ccc(F)cc2)c1-c1ccnc(NC[C@H]2CCCC[C@@H]2O)c1 | 11500 nM | 235 nM | 
65 | CSc1nc(-c2ccc(F)cc2)c(-c2ccnc(OCc3ccccc3)c2)[nH]1 | 44700 nM | 436 nM | 
66 | COCCn1c(SC)nc(-c2ccc(F)cc2)c1-c1ccnc(NC(C)CO)c1 (centres undefined) | 17400 nM | 292 nM | 
67 | CSc1nc(-c2cccc(C(F)(F)F)c2)c(-c2ccnc(NC(C)CCc3ccccc3)c2)[nH]1 (centres undefined) | 4640 nM | 49 nM | IC50 (Blood [3]): 1290 nM
68 | CSc1nc(-c2cccc(C(F)(F)F)c2)c(-c2ccnc(NC(C)C(C)C)c2)[nH]1 (centres undefined) | 2930 nM | 34 nM | IC50 (Blood [3]): 1360 nM
69 | CSc1nc(-c2ccc(F)cc2)c(-c2ccnc(N[C@H]3CC[C@H](O)CC3)c2)[nH]1 | 386 nM | 3 nM | 
